# Assay: Ex vivo biodistribution in PC-3 tumor-bearing mice
# Conditions: mouse; for tissue to tissue ratio at 1 h / tissue to tissue ratio at 4 h / tissue to tissue ratio at 24 h / tissue to tissue ratio at 72 h / tissue to tissue ratio at 120 h: male, NOD.Cg-Rag1^tm1Mom Il2rg^tm1Wjl/SzJ (NRG), total radioactivity; for tissue to tissue ratio at 4 h / tissue uptake at 4 h: 4 h post-injection; for tissue to tissue ratio at 24 h / tissue uptake at 24 h: 24 h post-injection; for tissue to tissue ratio at 72 h / tissue uptake at 72 h: 72 h post-injection; for tissue to tissue ratio at 120 h / tissue uptake at 120 h: 120 h post-injection
# Method: SPECT/CT imaging experiments were performed using an MILabs (Houten, The Netherlands) U-SPECT-II/CT scanner with a custom-made ultra-high-sensitivity big mouse collimator (2 mm pinhole size) following previously reported procedures. […] Male NOD.Cg-Rag1^tm1Mom Il2rg^tm1Wjl/SzJ (NRG) mice were used in these experiments because of their immunodeficient characteristics and excellent radiation tolerance. Mice were anaesthetized and subcutaneously implanted with 5 × 10^6 PC-3 prostate cancer cells (100 µL; 1:1 PBS/Matrigel) behind the left shoulder. SPECT/CT imaging and biodistribution studies were performed once the tumors reached a diameter of 5–8 mm, typically after approximately 4 weeks of growth.
# For ex vivo biodistribution studies, the mice were injected with ~2–6 MBq of the radioligand. […] Blocking study was conducted at 1 h post-injection via co-injection of the radioligand with 100 μg of [D-Phe^6,Leu-NHEt^13,des-Met^14]Bombesin(6–14). Organs/tissues of interested were collected, weighed, and measured using an automatic gamma counter.
# [1] = tumor/blood, Tumor/blood uptake ratio
# [2] = tumor/kidney, Tumor/kidney uptake ratio
# [3] = tumor/muscle, Tumor/muscle uptake ratio
# [4] = tumor/pancreas, Tumor/pancreas uptake ratio
# [5] = PC-3 tumor, Uptake in PC-3 tumor
# [6] = adrenal glands, Uptake in adrenal glands
# [7] = large intestine, Uptake in large intestine
smiles,measurement,setting,value
"CC(C)C[C@H](NC(=O)[C@H](Cc1cnc[nH]1)N(C)C(=O)CNC(=O)[C@@H](NC(=O)[C@H](C)NC(=O)[C@H](Cc1c[nH]c2ccccc12)NC(=O)[C@H](CCC(N)=O)NC(=O)[C@@H](Cc1ccccc1)NC(=O)CN1CCC(NC(=O)CN2CCN(CC(=O)O)CCN(CC(=O)O)CCN(CC(=O)O)CC2)CC1)C(C)(C)C)C(=O)N1CSC[C@H]1C(N)=O [[^177Lu]Lu-LW01110, metal not drawn]",tissue to tissue ratio at 1 h,"tumor/blood, Tumor/blood uptake ratio, 1 h blocked (co-injected with 100 µg [D-Phe6,Leu-NHEt13,des-Met14]Bombesin(6-14))",5.32 ± 0.87
same,tissue to tissue ratio at 1 h,"tumor/blood, Tumor/blood uptake ratio, 1 h post-injection",15.9 ± 1.55
same,tissue to tissue ratio at 4 h,[1],234 ± 53.9
same,tissue to tissue ratio at 24 h,[1],1220 ± 229
same,tissue to tissue ratio at 72 h,[1],1330 ± 177
same,tissue to tissue ratio at 120 h,[1],1310 ± 412
same,tissue to tissue ratio at 1 h,"tumor/kidney, Tumor/kidney uptake ratio, 1 h blocked (co-injected with 100 µg [D-Phe6,Leu-NHEt13,des-Met14]Bombesin(6-14))",0.85 ± 0.1
same,tissue to tissue ratio at 1 h,"tumor/kidney, Tumor/kidney uptake ratio, 1 h post-injection",2.96 ± 0.43
same,tissue to tissue ratio at 4 h,[2],3.27 ± 0.89
same,tissue to tissue ratio at 24 h,[2],4.86 ± 0.64
same,tissue to tissue ratio at 72 h,[2],8.92 ± 1.62
same,tissue to tissue ratio at 120 h,[2],11.3 ± 1.27
same,tissue to tissue ratio at 1 h,"tumor/muscle, Tumor/muscle uptake ratio, 1 h blocked (co-injected with 100 µg [D-Phe6,Leu-NHEt13,des-Met14]Bombesin(6-14))",21.5 ± 3.27
same,tissue to tissue ratio at 1 h,"tumor/muscle, Tumor/muscle uptake ratio, 1 h post-injection",76.2 ± 10.1
same,tissue to tissue ratio at 4 h,[3],392 ± 101
same,tissue to tissue ratio at 24 h,[3],651 ± 95
same,tissue to tissue ratio at 72 h,[3],647 ± 311
same,tissue to tissue ratio at 120 h,[3],776 ± 314
same,tissue to tissue ratio at 1 h,"tumor/pancreas, Tumor/pancreas uptake ratio, 1 h blocked (co-injected with 100 µg [D-Phe6,Leu-NHEt13,des-Met14]Bombesin(6-14))",1.17 ± 0.31
same,tissue to tissue ratio at 1 h,"tumor/pancreas, Tumor/pancreas uptake ratio, 1 h post-injection",0.99 ± 0.11
same,tissue to tissue ratio at 4 h,[4],1.87 ± 0.37
same,tissue to tissue ratio at 24 h,[4],2.22 ± 0.25
same,tissue to tissue ratio at 72 h,[4],4.58 ± 0.68
same,tissue to tissue ratio at 120 h,[4],6.6 ± 1.14
same,tissue uptake at 1 h,"PC-3 tumor, 100 ug, Uptake in PC-3 tumor, 1 h blocked (co-injected with 100 µg [D-Phe6,Leu-NHEt13,des-Met14]Bombesin(6-14))",2.99 ± 0.42 %ID/g
same,tissue uptake at 1 h,"PC-3 tumor, Uptake in PC-3 tumor, 1 h post-injection",11 ± 1.03 %ID/g
same,tissue uptake at 4 h,[5],10.1 ± 1.4 %ID/g
same,tissue uptake at 24 h,[5],6.9 ± 1.34 %ID/g
same,tissue uptake at 72 h,[5],4.72 ± 1.42 %ID/g
same,tissue uptake at 120 h,[5],2.23 ± 0.33 %ID/g
same,tissue uptake at 1 h,"adrenal glands, 100 ug, Uptake in adrenal glands, 1 h blocked (co-injected with 100 µg [D-Phe6,Leu-NHEt13,des-Met14]Bombesin(6-14))",0.54 ± 0.24 %ID/g
same,tissue uptake at 24 h,[6],0.98 ± 0.18 %ID/g
same,tissue uptake at 120 h,[6],0.25 ± 0.05 %ID/g
same,tissue uptake at 1 h,"blood, 100 ug, Uptake in blood, 1 h blocked (co-injected with 100 µg [D-Phe6,Leu-NHEt13,des-Met14]Bombesin(6-14))",0.58 ± 0.16 %ID/g
same,tissue uptake at 4 h,"blood, Uptake in blood",0.04 ± 0.01 %ID/g
same,tissue uptake at 24 h,"blood, Uptake in blood",0.01 %ID/g
same,tissue uptake at 1 h,"bone, 100 ug, Uptake in bone, 1 h blocked (co-injected with 100 µg [D-Phe6,Leu-NHEt13,des-Met14]Bombesin(6-14))",0.08 ± 0.02 %ID/g
same,tissue uptake at 4 h,"bone, Uptake in bone",0.05 ± 0.03 %ID/g
same,tissue uptake at 24 h,"bone, Uptake in bone",0.02 ± 0.01 %ID/g
same,tissue uptake at 72 h,"bone, Uptake in bone",0.02 ± 0.01 %ID/g
same,tissue uptake at 120 h,"bone, Uptake in bone",0.01 %ID/g
same,tissue uptake at 1 h,"brain, 100 ug, Uptake in brain, 1 h blocked (co-injected with 100 µg [D-Phe6,Leu-NHEt13,des-Met14]Bombesin(6-14))",0.02 %ID/g
same,tissue uptake at 1 h,"fat, 100 ug, Uptake in fat, 1 h blocked (co-injected with 100 µg [D-Phe6,Leu-NHEt13,des-Met14]Bombesin(6-14))",0.07 ± 0.02 %ID/g
same,tissue uptake at 1 h,"fat, Uptake in fat, 1 h post-injection",0.07 ± 0.02 %ID/g
same,tissue uptake at 4 h,"fat, Uptake in fat",0.01 %ID/g
same,tissue uptake at 24 h,"fat, Uptake in fat",0.01 %ID/g
same,tissue uptake at 1 h,"heart, 100 ug, Uptake in heart, 1 h blocked (co-injected with 100 µg [D-Phe6,Leu-NHEt13,des-Met14]Bombesin(6-14))",0.2 ± 0.06 %ID/g
same,tissue uptake at 1 h,"heart, Uptake in heart, 1 h post-injection",0.22 ± 0.01 %ID/g
same,tissue uptake at 72 h,"heart, Uptake in heart",0.02 %ID/g
same,tissue uptake at 120 h,"heart, Uptake in heart",0.01 %ID/g
same,tissue uptake at 1 h,"kidneys, 100 ug, Uptake in kidneys, 1 h blocked (co-injected with 100 µg [D-Phe6,Leu-NHEt13,des-Met14]Bombesin(6-14))",3.56 ± 0.77 %ID/g
same,tissue uptake at 1 h,"kidneys, Uptake in kidneys, 1 h post-injection",3.77 ± 0.58 %ID/g
same,tissue uptake at 4 h,"kidneys, Uptake in kidneys",2.67 ± 0.49 %ID/g
same,tissue uptake at 24 h,"kidneys, Uptake in kidneys",1.46 ± 0.42 %ID/g
same,tissue uptake at 72 h,"kidneys, Uptake in kidneys",< 1 %ID/g
same,tissue uptake at 120 h,"kidneys, Uptake in kidneys",0.2 ± 0.02 %ID/g
same,tissue uptake at 1 h,"large intestine, Uptake in large intestine, 1 h post-injection",1 ± 0.15 %ID/g
same,tissue uptake at 4 h,[7],1.15 ± 0.38 %ID/g
same,tissue uptake at 24 h,[7],0.44 ± 0.11 %ID/g
same,tissue uptake at 1 h,"liver, 100 ug, Uptake in liver, 1 h blocked (co-injected with 100 µg [D-Phe6,Leu-NHEt13,des-Met14]Bombesin(6-14))",0.26 ± 0.05 %ID/g
same,tissue uptake at 24 h,"liver, Uptake in liver",0.13 ± 0.04 %ID/g
same,tissue uptake at 72 h,"liver, Uptake in liver",0.07 ± 0.01 %ID/g

# Reference: PMC12030706, “Novel ^177Lu-Labeled [Thz^14]Bombesin(6–14) Derivatives with Low Pancreas Accumulation for Targeting Gastrin-Releasing Peptide Receptor-Expressing Cancer” (Pharmaceuticals, 2025)
